Patent US20170088520A1, “DEUBIQUITINASE INHIBITORS” (PharmAkea, Inc., priority 2014, published 2017)

How the values were obtained:
Type in all cases: cell-based
[1] = system: PARP cleavage in cells (NCI-H929, Z138, MM.1S, A-375); experiment: Analysis of PARP cleavage by Western blotting; details: compound tested at 5 μM; Western blot
Summary of the method: (§1)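 NCI-H929, Z138, MM.1S and A-375 cells were treated with compounds at 5 μM, and lysates were Western blotted with anti-Mcl-1 and anti-PARP antibodies, quantified by infrared fluorescence. Activity is a significant drop in Mcl-1 and the appearance of cleaved PARP, each relative to vehicle-treated cells.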

[2] = system: Mcl-1 expression in cells (NCI-H929, Z138, MM.1S, A-375); experiment: Analysis of Mcl-1 expression by Western blotting; details: compound tested at 5 μM; Western blot
Summary of the method: as §1

[3] = target: T1, DUB activity in cells (NCI-H929, Z138, MM.1S, A375) (Homo sapiens, UniProt Q93008); experiment: HA-Ubiquitin-Vinylsulfone (HA-Ub-VS) cell labeling assay; details: compound tested at 5 μM; HA-Ub-VS labeling of USP9x in cells
T1 construct: endogenous in cells; host or cells: NCI-H929, Z138, MM.1S, A375
Summary of the method: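 NCI-H929, Z138, MM.1S or A375 cells (1–2×10^6) treated 2–6 h at 37 °C with compound in 0.5% DMSO, here 5 μM. Lysates labeled with HA-Ub-VS for 15–60 min at 37 °C. Labeled DUBs resolved by SDS-PAGE and quantified by anti-HA and anti-β-actin immunoblot with infrared detection.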

T1 sequence (Q93008 whole entry): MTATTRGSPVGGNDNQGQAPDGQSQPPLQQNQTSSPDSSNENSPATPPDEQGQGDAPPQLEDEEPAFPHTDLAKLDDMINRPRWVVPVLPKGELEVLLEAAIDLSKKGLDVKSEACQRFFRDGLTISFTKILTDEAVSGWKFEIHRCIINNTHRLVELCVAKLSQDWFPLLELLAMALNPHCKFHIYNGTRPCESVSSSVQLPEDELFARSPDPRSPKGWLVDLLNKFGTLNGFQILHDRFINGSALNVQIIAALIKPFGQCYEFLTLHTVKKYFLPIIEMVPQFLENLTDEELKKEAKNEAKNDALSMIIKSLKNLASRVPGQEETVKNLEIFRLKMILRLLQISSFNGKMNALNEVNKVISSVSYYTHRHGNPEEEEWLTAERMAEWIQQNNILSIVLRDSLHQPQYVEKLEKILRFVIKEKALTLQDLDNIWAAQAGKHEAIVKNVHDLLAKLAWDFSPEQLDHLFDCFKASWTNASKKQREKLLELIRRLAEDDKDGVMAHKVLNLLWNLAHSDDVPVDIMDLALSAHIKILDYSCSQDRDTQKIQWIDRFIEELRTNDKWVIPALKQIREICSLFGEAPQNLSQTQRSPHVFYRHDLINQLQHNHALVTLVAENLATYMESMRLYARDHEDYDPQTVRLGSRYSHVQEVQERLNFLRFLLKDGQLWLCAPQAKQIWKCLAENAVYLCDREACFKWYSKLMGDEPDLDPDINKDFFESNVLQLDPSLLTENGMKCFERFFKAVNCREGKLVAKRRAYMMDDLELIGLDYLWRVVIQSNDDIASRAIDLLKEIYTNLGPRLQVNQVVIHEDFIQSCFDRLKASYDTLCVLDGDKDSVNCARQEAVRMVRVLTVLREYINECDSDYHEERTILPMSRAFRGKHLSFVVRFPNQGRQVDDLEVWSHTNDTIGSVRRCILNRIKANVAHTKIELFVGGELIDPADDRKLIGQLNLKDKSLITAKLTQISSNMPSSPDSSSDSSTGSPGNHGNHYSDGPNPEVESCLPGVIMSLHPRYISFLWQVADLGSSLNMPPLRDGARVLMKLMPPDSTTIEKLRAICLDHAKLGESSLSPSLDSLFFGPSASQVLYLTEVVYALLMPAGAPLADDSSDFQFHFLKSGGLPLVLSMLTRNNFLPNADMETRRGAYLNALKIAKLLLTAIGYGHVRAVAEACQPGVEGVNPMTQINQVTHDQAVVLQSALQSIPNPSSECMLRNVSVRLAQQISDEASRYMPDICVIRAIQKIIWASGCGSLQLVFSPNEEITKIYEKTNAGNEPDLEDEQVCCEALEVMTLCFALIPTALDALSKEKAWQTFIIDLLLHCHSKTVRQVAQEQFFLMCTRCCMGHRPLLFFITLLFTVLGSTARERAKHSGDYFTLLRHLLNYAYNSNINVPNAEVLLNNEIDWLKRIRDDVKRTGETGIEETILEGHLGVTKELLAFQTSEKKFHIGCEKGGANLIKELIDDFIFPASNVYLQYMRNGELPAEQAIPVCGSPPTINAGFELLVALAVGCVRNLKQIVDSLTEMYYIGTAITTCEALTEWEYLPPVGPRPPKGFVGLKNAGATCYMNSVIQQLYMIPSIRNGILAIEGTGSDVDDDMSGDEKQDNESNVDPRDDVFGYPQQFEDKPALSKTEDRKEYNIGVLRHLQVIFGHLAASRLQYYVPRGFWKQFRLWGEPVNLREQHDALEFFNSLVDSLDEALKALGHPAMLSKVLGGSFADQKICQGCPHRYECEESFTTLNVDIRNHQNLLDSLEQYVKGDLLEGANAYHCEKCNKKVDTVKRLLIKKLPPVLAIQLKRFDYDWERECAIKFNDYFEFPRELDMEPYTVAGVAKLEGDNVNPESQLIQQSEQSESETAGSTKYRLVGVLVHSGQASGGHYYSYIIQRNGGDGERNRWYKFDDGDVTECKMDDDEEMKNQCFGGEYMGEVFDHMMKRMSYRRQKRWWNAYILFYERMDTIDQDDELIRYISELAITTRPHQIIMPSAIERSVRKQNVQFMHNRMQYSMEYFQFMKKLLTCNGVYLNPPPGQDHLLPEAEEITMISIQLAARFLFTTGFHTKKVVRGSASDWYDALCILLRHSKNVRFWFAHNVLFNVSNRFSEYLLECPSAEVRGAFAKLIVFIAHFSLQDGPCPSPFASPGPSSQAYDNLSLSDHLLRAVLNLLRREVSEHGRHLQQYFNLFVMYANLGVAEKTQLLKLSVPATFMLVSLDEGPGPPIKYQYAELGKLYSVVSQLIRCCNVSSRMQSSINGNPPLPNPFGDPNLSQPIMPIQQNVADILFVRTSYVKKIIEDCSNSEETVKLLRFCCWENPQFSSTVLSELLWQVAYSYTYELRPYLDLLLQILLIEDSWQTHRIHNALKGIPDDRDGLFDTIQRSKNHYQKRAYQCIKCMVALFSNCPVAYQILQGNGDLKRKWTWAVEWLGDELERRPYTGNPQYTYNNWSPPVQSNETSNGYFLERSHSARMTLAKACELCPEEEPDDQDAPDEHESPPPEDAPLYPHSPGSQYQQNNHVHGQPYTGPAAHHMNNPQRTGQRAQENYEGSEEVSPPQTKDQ

Question: What does the source list for Cn1cc(-c2ccc(C3(NC(=O)/C(C#N)=C/c4ncc(Br)cc4Br)CCCC3)cc2)cn1 [Compound 77, (E)-2-cyano-3-(3,5-dibromopyridin-2-yl)-N-(1-(4-(1-methyl-1H-pyrazol-4-yl)phenyl)cyclopentyl)acrylamide]?
Answer: PARP cleavage % Inhibition [1]: B (B is 50% to 75% inhibition); inhibition at 5 µM [2]: 50 to 75%; inhibition at 5 µM [3]: 50 to 75%

Question: With N#C/C(=C\c1cccc(Br)n1)C(=O)NC1(c2ccc(C#CCNCCO)cc2)CCCC1 [Compound 78, (E)-3-(6-bromopyridin-2-yl)-2-cyano-N-(1-(4-(3-((2-hydroxyethyl)amino)prop-1-yn-1-yl)phenyl)cyclopentyl)acrylamide] as the molecule, how does the “PARP cleavage % Inhibition” value [1] read?
Answer: B (B is 50% to 75% inhibition)

Question: What about the inhibition at 5 µM [2] of the same molecule?
Answer: < 25%

Question: What about the inhibition at 5 µM [3] of the same molecule?
Answer: 50 to 75%

Question: Which “PARP cleavage % Inhibition” value [1] does the source give for N#C/C(=C\c1cccc(Br)n1)C(=O)NC1(c2ccc(O)cc2)CCCC1 [Compound 79, (E)-3-(6-bromopyridin-2-yl)-2-cyano-N-(1-(4-hydroxyphenyl)cyclopentyl)acrylamide] here?
Answer: A (A is ≧75% inhibition)

Question: And the inhibition at 5 µM [2]?
Answer: ≥ 75%

Question: What about the inhibition at 5 µM [3] of the same molecule?
Answer: ≥ 75%

Question: How did the “PARP cleavage % Inhibition” value [1] turn out when N#C/C(=C\c1cccc(Br)n1)C(=O)NC1(c2ccccc2)CCOC1 (stereo not drawn) [Compound 80, (E)-3-(6-bromopyridin-2-yl)-2-cyano-N-(3-phenyltetrahydrofuran-3-yl)acrylamide] was run?
Answer: D (D is <25% inhibition)

Question: What about the inhibition at 5 µM [2] of the same molecule?
Answer: < 25%

Question: What about the inhibition at 5 µM [3] of the same molecule?
Answer: < 25%

Question: Which results are given for N#C/C(=C\c1cccc(Br)n1)C(=O)NC1(c2cccc(CO)c2)CCCC1 [Compound 81, (E)-3-(6-bromopyridin-2-yl)-2-cyano-N-(1-(3-(hydroxymethyl)phenyl)cyclopentyl)acrylamide]?
Answer: PARP cleavage % Inhibition [1]: A (A is ≧75% inhibition); inhibition at 5 µM [2]: 25 to 50%; inhibition at 5 µM [3]: 50 to 75%

Question: Which “PARP cleavage % Inhibition” value [1] does the source give for N#C/C(=C\c1cccc(C2CC2)n1)C(=O)NC1(c2ccc(-c3cccc(C(=O)O)c3)cc2)CCCC1 [Compound 82, (E)-4′-(1-(2-cyano-3-(6-cyclopropylpyridin-2-yl)acrylamido)cyclopentyl)-[1,1′-biphenyl]-3-carboxylic acid] here?
Answer: A (A is ≧75% inhibition)

Question: What about the inhibition at 5 µM [2] of the same molecule?
Answer: 50 to 75%

Question: What about the inhibition at 5 µM [3] of the same molecule?
Answer: < 25%

Question: With N#C/C(=C\c1cccc(N2CCCC2)n1)C(=O)NC1(c2ccccc2)CCCC1 [Compound 83, (E)-2-cyano-N-(1-phenylcyclopentyl)-3-(6-(pyrrolidin-1-yl)pyridin-2-yl) acrylamide] as the molecule, how does the “PARP cleavage % Inhibition” value [1] read?
Answer: D (D is <25% inhibition)

Question: What about the inhibition at 5 µM [2] of the same molecule?
Answer: < 25%

Question: What about the inhibition at 5 µM [3] of the same molecule?
Answer: < 25%

Question: Which results are given for CCCCCCCCCCCCCC(=O)OCc1ccc(C2(NC(=O)/C(C#N)=C/c3cccc(Br)n3)CCCC2)cc1 [Compound 84, (E)-4-(1-(3-(6-bromopyridin-2-yl)-2-cyanoacrylamido)cyclopentyl)benzyl tetradecanoate]?
Answer: PARP cleavage % Inhibition [1]: D (D is <25% inhibition); inhibition at 5 µM [2]: < 25%; inhibition at 5 µM [3]: < 25%

Question: Which “PARP cleavage % Inhibition” value [1] does the source give for N#C/C(=C\c1cccc(Br)n1)C(=O)NC1(c2ccc(COC(=O)CCCCCN3C(=O)C=CC3=O)cc2)CCCC1 [Compound 85, (E)-4-(1-(3-(6-bromopyridin-2-yl)-2-cyanoacrylamido)cyclopentyl)benzyl 6-(2,5-dioxo-2,5-dihydro-1H-pyrrol-1-yl)hexanoate] here?
Answer: C (C is 25% to 50% inhibition)

Question: And the inhibition at 5 µM [2]?
Answer: < 25%

Question: And the inhibition at 5 µM [3]?
Answer: 25 to 50%

Question: For N#C/C(=C\c1cccc(Br)n1)C(=O)NC1(c2ccc(CO)cc2)CCCC1 [Compound 86, (E)-3-(6-bromopyridin-2-yl)-2-cyano-N-(1-(4-(hydroxymethyl)phenyl)cyclopentyl)acrylamide], which “PARP cleavage % Inhibition” value [1] is on record?
Answer: B (B is 50% to 75% inhibition)

Question: What about the inhibition at 5 µM [2] of the same molecule?
Answer: < 25%

Question: What about the inhibition at 5 µM [3] of the same molecule?
Answer: 25 to 50%

Question: How did the “PARP cleavage % Inhibition” value [1] turn out when CC(=O)OCc1ccc(C2(NC(=O)/C(C#N)=C/c3cccc(Br)n3)CCCC2)cc1 [Compound 87, (E)-4-(1-(3-(6-bromopyridin-2-yl)-2-cyanoacrylamido)cyclopentyl)benzyl acetate] was run?
Answer: A (A is ≧75% inhibition)

Question: And the inhibition at 5 µM [2]?
Answer: 50 to 75%

Question: What about the inhibition at 5 µM [3] of the same molecule?
Answer: 25 to 50%

Question: How did the “PARP cleavage % Inhibition” value [1] turn out when CC(C)(C)OC(=O)COc1ccc(C2(NC(=O)/C(C#N)=C/c3cccc(Br)n3)CCCC2)cc1 [Compound 88, (E)-tert-butyl 2-(4-(1-(3-(6-bromopyridin-2-yl)-2-cyanoacrylamido)cyclopentyl)phenoxy)acetate] was run?
Answer: A (A is ≧75% inhibition)

Question: What about the inhibition at 5 µM [2] of the same molecule?
Answer: ≥ 75%

Question: And the inhibition at 5 µM [3]?
Answer: ≥ 75%

Question: N#C/C(=C\c1cccc(-c2cccc(C(=O)O)c2F)n1)C(=O)NC1(c2ccccc2)CCCC1 [Compound 89, (E)-3-(6-(2-cyano-3-oxo-3-((1-phenylcyclopentyl)amino)prop-1-en-1-yl)pyridin-2-yl)-2-fluorobenzoic acid] was tested. Which “PARP cleavage % Inhibition” value [1] did it give?
Answer: C (C is 25% to 50% inhibition)

Question: And the inhibition at 5 µM [2]?
Answer: < 25%

Question: What about the inhibition at 5 µM [3] of the same molecule?
Answer: < 25%

Question: Which results are given for N#C/C(=C\c1cccc(Br)n1)C(=O)NC1(c2ccc(-c3ccc(CC(=O)O)cc3)cc2)CCCC1 [Compound 90, (E)-2-(4′-(1-(3-(6-bromopyridin-2-yl)-2-cyanoacrylamido)cyclopentyl)-[1,1′-biphenyl]-4-yl)acetic acid]?
Answer: PARP cleavage % Inhibition [1]: D (D is <25% inhibition); inhibition at 5 µM [2]: 25 to 50%; inhibition at 5 µM [3]: < 25%

Question: Which results are given for N#C/C(=C\c1cccc(Br)n1)C(=O)NC1(c2ccc(-c3ccc(C(=O)O)cc3)cc2)CCCC1 [Compound 91, (E)-4′-(1-(3-(6-bromopyridin-2-yl)-2-cyanoacrylamido)cyclopentyl)-[1,1′-biphenyl]-4-carboxylic acid]?
Answer: PARP cleavage % Inhibition [1]: A (A is ≧75% inhibition); inhibition at 5 µM [2]: ≥ 75%; inhibition at 5 µM [3]: 25 to 50%

Question: Which results are given for N#C/C(=C\c1cccc(C2CC2)n1)C(=O)NC1(c2ccc(-c3ccc(C(=O)O)cc3)cc2)CCCC1 [Compound 92, (E)-4′-(1-(2-cyano-3-(6-cyclopropylpyridin-2-yl)acrylamido)cyclopentyl)-[1,1′-biphenyl]-4-carboxylic acid]?
Answer: PARP cleavage % Inhibition [1]: A (A is ≧75% inhibition); inhibition at 5 µM [2]: ≥ 75%; inhibition at 5 µM [3]: 25 to 50%

Question: For N#C/C(=C\c1cccc(C2CC2)n1)C(=O)NC1(c2ccc(-c3ccc(CC(=O)O)cc3)cc2)CCCC1 [Compound 93, (E)-2-(4′-(1-(2-cyano-3-(6-cyclopropylpyridin-2-yl)acrylamido)cyclopentyl)-[1,1′-biphenyl]-4-yl)acetic acid], which “PARP cleavage % Inhibition” value [1] is on record?
Answer: A (A is ≧75% inhibition)

Question: What about the inhibition at 5 µM [2] of the same molecule?
Answer: ≥ 75%

Question: What about the inhibition at 5 µM [3] of the same molecule?
Answer: 25 to 50%

Question: Which “PARP cleavage % Inhibition” value [1] does the source give for N#C/C(=C\c1cccc(Br)n1)C(=O)NC1(c2ccc(-c3cccc(C(=O)NS(=O)(=O)c4ccccc4)c3)cc2)CCCC1 [Compound 94, (E)-4′-(1-(3-(6-bromopyridin-2-yl)-2-cyanoacrylamido)cyclopentyl)-N-(phenylsulfonyl)-[1,1′-biphenyl]-3-carboxamide] here?
Answer: A (A is ≧75% inhibition)

Question: And the inhibition at 5 µM [2]?
Answer: 25 to 50%

Question: What about the inhibition at 5 µM [3] of the same molecule?
Answer: < 25%

Question: With N#C/C(=C\c1cccc(Br)n1)C(=O)NC1(c2ccc(-c3ccc4[nH]ncc4c3)cc2)CCCC1 [Compound 95, (E)-N-(1-(4-(1H-indazol-5-yl)phenyl)cyclopentyl)-3-(6-bromopyridin-2-yl)-2-cyanoacrylamide] as the molecule, how does the “PARP cleavage % Inhibition” value [1] read?
Answer: D (D is <25% inhibition)

Question: And the inhibition at 5 µM [2]?
Answer: < 25%

Question: And the inhibition at 5 µM [3]?
Answer: < 25%

Question: What does the source list for N#C/C(=C\c1cccc(Br)n1)C(=O)NC1(c2ccc(-c3ccc4[nH]ccc4c3)cc2)CCCC1 [Compound 96, (E)-N-(1-(4-(1H-indol-5-yl)phenyl)cyclopentyl)-3-(6-bromopyridin-2-yl)-2-cyanoacrylamide]?
Answer: PARP cleavage % Inhibition [1]: A (A is ≧75% inhibition); inhibition at 5 µM [2]: 50 to 75%; inhibition at 5 µM [3]: 50 to 75%

Question: How did the “PARP cleavage % Inhibition” value [1] turn out when CCOC(=O)CN1CCc2ccc(-c3cccc(/C=C(\C#N)C(=O)NC4(c5ccccc5)CCCC4)n3)cc2C1 [Compound 97, (E)-ethyl 2-(7-(6-(2-cyano-3-oxo-3-((1-phenylcyclopentyl)amino)prop-1-en-1-yl)pyridin-2-yl)-3,4-dihydroisoquinolin-2(1H)-yl)acetate] was run?
Answer: B (B is 50% to 75% inhibition)

Question: What about the inhibition at 5 µM [2] of the same molecule?
Answer: < 25%

Question: And the inhibition at 5 µM [3]?
Answer: 25 to 50%

Question: With Cc1ccc(-c2ccc(C3(NC(=O)/C(C#N)=C/c4cccc(Br)n4)CCCC3)cc2)cc1CC(=O)O [Compound 98, (E)-2-(4′-(1-(3-(6-bromopyridin-2-yl)-2-cyanoacrylamido)cyclopentyl)-4-methyl-[1,1′-biphenyl]-3-yl)acetic acid] as the molecule, how does the “PARP cleavage % Inhibition” value [1] read?
Answer: D (D is <25% inhibition)

Question: What about the inhibition at 5 µM [2] of the same molecule?
Answer: < 25%

Question: And the inhibition at 5 µM [3]?
Answer: < 25%

Question: N#C/C(=C\c1cccc(C2CC2)n1)C(=O)NC1(c2ccc(-c3ccc4[nH]ccc4c3)cc2)CCCC1 [Compound 99, (E)-N-(1-(4-(1H-indol-5-yl)phenyl)cyclopentyl)-2-cyano-3-(6-cyclopropylpyridin-2-yl)acrylamide] was tested. Which “PARP cleavage % Inhibition” value [1] did it give?
Answer: C (C is 25% to 50% inhibition)

Question: And the inhibition at 5 µM [2]?
Answer: < 25%

Question: And the inhibition at 5 µM [3]?
Answer: 25 to 50%
